This note sets out measurements from patent US20220312762A1, “USE OF ENCAPSULATED STEROLS TO MODIFY GROWTH OF CROPS, CONTROL, AGRICULTURAL PESTS AND AS NON-TOXIC PRE-EMERGENT HERBICIDES” (The Texas A&M University System, priority 2019, published 2022).

The structures appear in SMILES notation.

Experiment [1] deals with Arabidopsis thaliana. Briefly: Arabidopsis growth and development on sterol-supplemented media. It counts as in vivo. Conditions: for growth phenotype: 100 μM exogenous sterol; for root anatomy: 100 μM sterol; for biomass: 8-days old seedlings on sterol-supplemented media, high sterol (FIG. 5A, 5B); for chlorophyll levels: plants grown on sterol media (FIG. 4A-4D); for root and root hair growth and development: sterol-supplemented media (FIG. 3A-3E). As to the method: (§1) Plants and Plant Growth Conditions. Cholesterol (C3045, Sigma-Aldrich, USA), stigmasterol (S2424, Sigma-Aldrich, USA), and β-sitosterol (567152, Millipore-Sigma, USA) were prepared as stock solutions with a slight modification from that described in literature. Sterols were dissolved in 100% ethanol at 1.5 mM concentration and combined with methyl-β-cyclodextrin (MβCD) (Sigma-Aldrich, USA) at a molar ratio of 1:3 to a final concentration of 1-300 μM sterol and 1-900 μM MβCD. The probe was either sonicated for 30 minutes and vortexed for 15 minutes before use, or just vortexed for 30 min before use. To make a powered water soluble form, the sterol (40-70% w/w β-sitosterol) is dissolved in 100% ethanol and then solubilized in β-cyclodextrins or their derivatives in water. The solution is then reduced by evaporation or freeze-drying to a powdered form.
(§2) The wild-type and transgenic seeds of Arabidopsis thaliana were surface-sterilized with 70% ethanol, rinsed in sterile distilled water (+/− sterol) and incubated at 4° C. in the dark for 48 hr. The imbibed seeds were then planted either planted in Petri dishes or in hydroponic containers. For Petri dish growth, 1% (w/v) agar (Sigma-Aldrich, USA) was dissolved in ½ strength Murashige and Skoog medium containing vitamins (Caisson Labs, USA) (+/− sterol), and the pH was adjusted to between 5.6 and 5.8. The seedlings were grown in vertically placed Petri dishes containing this medium for 5-10 days at 22° C. under the continuous white light (50 μmol m^−2sec^−1 photosynthetically active radiation). Hydroponic culture was a modification of that described in previous literature. The seeds were placed on a mesh inserted into the bottom of a sterile polypropylene 2 oz cup with a lid (TY-M2-100, Bingwu, sold on Amazon) inset into either a 4 oz sterile polypropylene cup (TY-M4-N50 Bingwu, sold on Amazon) or a black 5.5 oz sterile polypropylene Dart Conex cup (B07BK1DPPS, Table Top King, sold on Amazon). Enough medium (½ strength Murashige and Skoog medium containing vitamins (Caisson Labs, USA) (+/− sterol), and the pH was adjusted to between 5.6 and 5.8) was added to bring it up to the level of the mesh. They were grown for […] to maturity (˜75 days) in an 18:6 hr photoperiod at 22° C. with 100 […] photosynthetically active. Following growth, they were then harvested for sterol analysis, leaf venation analysis, or fresh and dry weight analysis, or photographed for image analysis of root, hypocotyl, and stem growth and color. Seed from typical crop plants, Nicotiana tabacum (tobacco) and Zea mays (corn) were also sown in defined medium in the presence and absence of encapsulated sterol to assess percent germination after one week. Common weed seeds (Amaranthus palmeri, Poa annua, and Ambrosia sp.) collected from natural sources were either grown in defined media (agar and Mirashige and Skoog medium) or planted in natural soils (sandy loam) in 2 inch inserts in plastic one foot square flats. They were treated with 100-500 microMolar phytosterol mix (40% β-sitosterol, 20% campesterol, 7% stigmasterol (SKU BSIT100, Bulk Supplements) with a 3:1 molar ratio of methyl-β-cyclodextrin in water. Growth was assessed in treated and untreated (only water) by seedling emergence in days after planting in a greenhouse with natural lighting.
(§3) Materials and Methods. Arabidopsis seeds were given a pre-cold treatment with a mixture of sterol, cholesterol (Sigma-Aldrich) or stigmasterol (Sigma-Aldrich) (1 microMolar, 10 microMolar and 100 microMolar) and methyl-β-cyclodextrin (Sigma-Aldrich) (1:3 ratio) and then planted on Murashige and Skoog-½ strength (Caisson's Lab) 1% agar media supplemented with a mixture of respective sterol and cyclodexterin (1:3 ratio). Common weed seeds (Amaranthus palmeri, Poa annua, and Ambrosia sp.) collected from natural sources were planted in natural soils (sandy loam) in 2 inch inserts in plastic one foot square flats. […]

The test system of experiment [2] is Arabidopsis thaliana seeds. Briefly: Arabidopsis seed germination on sterol-supplemented media. It counts as in vivo. As to conditions: for decrease in germination: 100 μM exogenous sterol. As to the method: as §1, §2, §3
[3] abbreviates: 10 microMolar encapsulated sterol.
The mark [4] stands for this setting: 100 microMolar encapsulated sterol.

Consider `CC[C@H](/C=C/[C@@H](C)[C@H]1CC[C@H]2[C@@H]3CC=C4C[C@@H](O)CC[C@]4(C)[C@H]3CC[C@]12C)C(C)C` [stigmasterol], for which, in experiment [1], the growth phenotype result is reported as “severe dwarfism”, the root anatomy entry is listed as “altered root anatomy”, the biomass entry is “reduced biomass” and the chlorophyll levels entry is “change chlorophyll levels”. For the same compound, the “root and root hair growth and development” value in experiment [1] is listed as “alters”. The decrease in germination in experiment [2] came to 35%. Further, in experiment [2] (setting [3]), the “seed germination (in words)” value is given as “seeds germinate”. In addition, the “seed germination (in words)” value in experiment [2] (setting [4]) is “significantly inhibit”.

On to `CC(C)CCC[C@@H](C)[C@H]1CC[C@H]2[C@@H]3CC=C4C[C@@H](O)CC[C@]4(C)[C@H]3CC[C@]12C` [cholesterol, Cholesterol], for which, in experiment [1] (100 μM), the vein pattern result was “altered vein pattern”. In addition, in experiment [1], the growth phenotype result is listed as “severe dwarfism”, the root anatomy entry is given as “altered root anatomy”, the biomass result is “reduced biomass” and the chlorophyll levels result is “change chlorophyll levels”. Moreover, the “root and root hair growth and development” value in experiment [1] is “alters”. The compound further yielded a decrease in germination in experiment [2] of 40%. In addition, the “seed germination (in words)” value in experiment [2] (setting [3]) is on record as “seeds germinate”. Moreover, the “seed germination (in words)” value in experiment [2] (setting [4]) is “significantly inhibit”. Besides, the germination inhibited in experiment [2] (300 microMolar encapsulated sterol, after a week of growth (FIG. 6A)) turned out to be 90%.
